Experimental data from US9938261B2, “Heterocyclic compounds and methods of use thereof” (AMBIT BIOSCIENCES CORPORATION, priority 2011, dated 2018).

What was measured:
KIT = biological target: T1, KIT (Homo sapiens, UniProt P10721); assay: Competition binding assay, KIT Kd; conditions: competition binding
T1 construct: made in house
Summary of the method: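 Read-out is quantitative PCR of kinase recovered from affinity beads after competition with test compound. Binding reached equilibrium over 1 hour at room temperature; Kd values come from eleven-point threefold serial dilutions.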

[1] = biological target: kinase panel containing either 386 or 392 distinct kinases; assay: Kinase selectivity score S10 from competition binding panel; conditions: 10 μM, panel of 386 or 392 distinct kinases
Summary of the method: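 Compounds at 10 μM competed against immobilised affinity ligands for T7 phage-fused or HEK-293-expressed DNA-tagged kinases, 1 h at room temperature; bound kinase eluted and quantified by qPCR. S10 = fraction of distinct non-mutant kinases with percent of DMSO control below 10.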

M-NFS-60 cells = assay: M-NFS-60 cell proliferation assay (Alamar Blue); assay type: cell-based, mouse; conditions: Mus musculus; M-NFS-60 cell proliferation; read-out: CSF1R M-NFS-60 CTB:IC50
Summary of the method: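 Mouse M-NFS-60 cells growing on 20 ng/mL M-CSF in RPMI/10% FBS were exposed to compounds (9 half-log concentrations, 0.5% DMSO) for 72 h at 37 °C. Viability read by Alamar Blue fluorescence (ex 560/em 590 nm, 3 h). IC50 = 50% proliferation inhibition versus control, mean of duplicates.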

T1 sequence (P10721 26-976): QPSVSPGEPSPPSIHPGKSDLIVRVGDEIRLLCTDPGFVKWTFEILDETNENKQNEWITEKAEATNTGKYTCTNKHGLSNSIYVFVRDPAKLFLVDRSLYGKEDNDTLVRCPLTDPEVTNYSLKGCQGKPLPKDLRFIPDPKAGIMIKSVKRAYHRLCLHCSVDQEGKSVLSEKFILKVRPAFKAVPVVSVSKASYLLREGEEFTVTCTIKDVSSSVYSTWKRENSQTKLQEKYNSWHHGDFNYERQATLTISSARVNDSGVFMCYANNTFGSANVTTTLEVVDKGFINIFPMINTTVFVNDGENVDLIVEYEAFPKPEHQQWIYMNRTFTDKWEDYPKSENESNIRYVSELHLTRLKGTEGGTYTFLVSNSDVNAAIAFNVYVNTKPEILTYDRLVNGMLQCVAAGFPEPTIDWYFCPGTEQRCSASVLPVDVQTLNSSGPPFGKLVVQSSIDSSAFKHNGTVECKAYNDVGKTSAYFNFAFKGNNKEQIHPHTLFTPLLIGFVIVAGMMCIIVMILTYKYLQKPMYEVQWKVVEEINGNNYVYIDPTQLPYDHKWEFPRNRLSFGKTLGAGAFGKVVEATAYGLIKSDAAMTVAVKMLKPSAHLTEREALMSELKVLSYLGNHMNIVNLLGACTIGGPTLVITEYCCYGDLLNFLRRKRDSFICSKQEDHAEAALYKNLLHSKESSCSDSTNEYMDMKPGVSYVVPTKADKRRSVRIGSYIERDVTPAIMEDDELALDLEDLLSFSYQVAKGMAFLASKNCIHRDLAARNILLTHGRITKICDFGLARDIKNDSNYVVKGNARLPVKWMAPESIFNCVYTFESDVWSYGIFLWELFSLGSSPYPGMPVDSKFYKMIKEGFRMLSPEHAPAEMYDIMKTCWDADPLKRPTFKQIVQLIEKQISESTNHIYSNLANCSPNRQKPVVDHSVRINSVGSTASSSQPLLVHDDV

Row | Kd (KIT) | Kinase specificity S(10) [1] | Structure (SMILES) | IC50 (M-NFS-60 cells)
1 | ≤ 0.1 µM | C (C>0.02) | O[C@@H]1CCCC[C@H]1Nc1nc2ccc(Cc3cnc4cccnn34)cc2o1 [Example 142, (1R,2R)-2-((6-(imidazo[1,2-b]pyridazin-3-ylmethyl)benzo[d]oxazol-2-yl)amino)cyclohexanol] | 0.05 to 0.4 µM
2 | 0.5 to 2 µM | A (A≤0.01) | N#Cc1cnc2c(c1)ncn2Cc1ccc2nc(N[C@@H]3CCCC[C@H]3CO)sc2c1 [Example 140, 3-((2-(((1R,2R)-2-(hydroxymethyl)cyclohexyl)amino)benzo[d]thiazol-6-yl)methyl)-3H-imidazo[4,5-b]pyridine-6-carbonitrile] | 0.4 to 1.5 µM
3 | ≤ 0.1 µM | C (C>0.02) | O[C@@H]1CCCC[C@H]1Nc1nc2ccc(Cn3cnc4cc(OCCN5CCOCC5)ccc43)cc2s1 [Example 171, (1R,2R)-2-((6-((5-(2-morpholinoethoxy)-1H-benzo[d]imidazol-1-yl)methyl)benzo[d]thiazol-2-yl)amino)cyclohexanol] | 0.05 to 0.4 µM
